Tests used:
[1] = system: p16; assay: Real-time qPCR, p16 cell cycle-related gene expression; format: cell-based, human; details: TNF-α/IFN-γ-exposed MSCs treated with compound; FIG. 1C
Protocol: (§1) Human placenta-derived mesenchymal stem cells (hPD-MSCs) were harvested from inside the placental chorion, and the harvested cells were cultured in an alpha-Minimum Essential medium (Cytiva, Marlborough, MA, USA) supplemented with 10% fetal bovine serum (ThermoFisher, Waltham, MA, USA), 1% penicillin/streptomycin (ThermoFisher, Waltham, MA, USA), 25 ng/mL human fibroblast growth factor-4 (Peprotech, Rocky Hill, NJ, USA) and 1 μg/mL heparin (Merck, San Francisco, CA, USA). A total of 1×10^5 hPD-MSCs were seeded in a cell culture dish (90×20 mm) (SPL, Pocheon, Korea) and cultured at 37° C. in an incubator containing 5% CO2. The cells were subcultured every 4 days until reaching 70 to 80% confluency. Expanded cells were obtained at passage 12 or 13. During subculture, viable cells were stained with Trypan blue (Merck) and the number of cells was manually counted.
(§2) In a passage for sample extraction, hPD-MSCs were cultured for 24 hours in a medium with or without an example compound (5-[(1,1-dioxido-4-thiomorpholinyl)methyl]-2-phenyl-N-(tetrahydro-2H-pyran-4-yl)-1H-indole-7-amine) while including 2.5 ng/mL TNF-α (Peprotech) and 25 ng/mL IFN-γ (Peprotech).
(§3) In the present experiment, the expression levels of stem cell differentiation-related genes and cell cycle-related genes were analyzed by qPCR. […]

[2] = system: TNF-α/IFN-γ-exposed hPD-MSCs; assay: Cell viability at each concentration of the example compound; format: cell-based; details: TNF-α/IFN-γ exposure, different concentrations of compound; FIG. 1D
Protocol: as §1, §2
Meanwhile, upon exposure to TNF-α/IFN-γ and treatment with the example compound, cell viability was evaluated, and the results are shown in FIG. 1D.

[3] = system: NANOG; assay: Real-time qPCR, NANOG stemness gene expression; format: cell-based, human; details: TNF-α/IFN-γ-exposed MSCs (TI) treated with compound; FIG. 1B
Protocol: as §1, §2, §3

[4] = system: monocyte chemotactic protein-1 (MCP-1); assay: Real-time qPCR, SASP factor MCP-1; format: cell-based, human; details: vs MSCs exposed to TNF-α/IFN-γ; FIG. 4C
Protocol: Real-time qPCR was performed using an Easy-Spin Total RNA Kit (iNtRON, Seongnam, Korea) to extract total RNA from hPD-MSCs and RNA concentration was adjusted to 100 ng/μL using a microplate spectrophotometer (Epoch™ Microplate Spectrophotometer, BioTek, Winooski, VT, USA), and the extracted RNA was reverse transcribed into cDNA using RT PreMix (dT20) (Bioneer, Seoul, Korea) using a SimpliAmp Thermal Cycler (Life Technologies, Carlsbad, CA, USA). Real-time qPCR was performed using a real-time PCR machine (CFX Connect, Bio-Rad, Hercules, CA, USA), SYBR Green Supermix (Bio-Rad) and the relevant primers, and all experiments were performed in triplicate for statistical analysis.
In the present experiment, the expression of IL-1β, IL-6, and monocyte chemotactic protein-1 (MCP-1), which are SASP-associated factors of the untreated MSC control, the TNF-α/IFN-γ-exposed MSC control (TI), and the experimental group treated with the example compound in the TNF-α/IFN-γ-exposed MSC control was analyzed by real-time qPCR. As the real-time qPCR analysis method, the same method described in Experimental Example 1-2 above was used, and the results are shown in FIGS. 4A to 4C.

[5] = system: TNF-α/IFN-γ-exposed hPD-MSCs; assay: Reactive oxygen species (ROS) assay, H2DCFDA; format: cell-based, human; details: TNF-α/IFN-γ-exposed MSC control (TI) treated with compound; FIG. 3F
Protocol: To investigate ROS levels, a total of 5×10^3 hPD-MSCs were seeded into each well of a 96-well black-microplate (SPL, 33196) and cultured for 24 hours, and then the cells were washed and cultured in a pre-warmed Hanks' balanced salt solution (14025092, ThermoFisher) containing 50 μM H2DCFDA (D399; ThermoFisher) for 30 minutes. Fluorescence intensity at a wavelength of 555 nm was measured at a wavelength of 488 nm using a Multi-Mode MicroPlate Reader (FlexStation 3, Molecular Devices, Silicon Valley, CA, USA), and the results are shown in FIG. 3F.

SMILES: O=S1(=O)CCN(Cc2cc(NC3CCOCC3)c3[nH]c(-c4ccccc4)cc3c2)CC1 [example compound, 5-[(1,1-dioxido-4-thiomorpholinyl)methyl]-2-phenyl-N-(tetrahydro-2H-pyran-4-yl)-1H-indole-7-amine]
- p16 expression (relative to untreated MSC control) [1]: remarkably decreased
- cell viability [2]: high
- NANOG expression (relative to untreated MSC control) [3]: significantly increased to a level similar to that of the untreated MSC control
- decrease of MCP-1 expression [4]: ~15%
- ROS value [5]: reduced to the level of the untreated MSC control

— US20240374646A1, “COMPOSITION FOR INHIBITING INFLAMMATION OR AGING OF STEM CELLS, AND METHOD FOR INHIBITING INFLAMMATION OR AGING BY USING SAME” (MITOIMMUNE THERAPEUTICS INC., priority 2021, published 2024)
